Assay results published in patent US10287298B2, “Nitrogen-containing analogs of salinomycin, synthesis and use against cancer stem cells and malaria” (Centre National de la Recherche Scientifique (CNRS), priority 2014, dated 2019).
Entries after “also recorded” stand apart in the source; their conditions may differ.

Tests used:
HMLER CD24low cells [1] = assay: Intracellular sodium measurement (SBFI-AM); assay type: cell-based, Human; conditions: 5 min treatment
Method: Intracellular sodium measurement: Sodium and potassium buffers (10 mM HEPES, 1 mM CaCl2, 1 mM MgCl2, 130 mM Sodium-D-Gluconate or Potassium-D-Gluconate, 30 mM NaCl/KCl) were mixed at different ratios to produce five buffers with various sodium concentrations (0, 20, 40, 80, 160 mM). Nigericin (N7143, Sigma, 10 μM) and monensin (M5273, Sigma, 10 μM) were used to equilibrate the intracellular sodium concentration and establish a calibration curve. HMLER CD24low cells were harvested and re-suspended in ECS buffer (15 mM HEPES, 5.4 mM KCl, 140 mM NaCl, 10 mM Glucose, 1 mM MgCl2, 1.8 mM CaCl2, 0.1% BSA, pH 7.6) containing 10 μM of the sodiumspecific probe (SBFI-AM, S-1263, Molecular Probes®) and 0.2% Pluronic F-127 (P2443, Sigma) and were incubated for 1 h in the dark at 37° C. Then, cells were washed to remove excess dye and incubated for an additional 30 min in ECS buffer. […] Each well was sequentially excited at 340 and 370 nm and emission was recorded at 500 nm. The spectral response of SBFI upon sodium binding was assessed by excitation ratio measurement (340/370 nm). Measurements were performed on a Perkin Elmer Wallac 1420 Victor2 Microplate Reader at 37° C.

TICs = conditions: cited from earlier work
Cell lines = assay: Apoptosis by Annexin V-FITC and PI staining with or without NAC; assay type: cell-based; conditions: 500 nM, 48 h
Method: FIG. 5: Salinomycine analogue—induced cell death is inhibited by the ROS scavenger N-acetylcysteine (NAC). Cell lines were incubated with or without 500 nM of Sal analogues for 48 h. Apoptosis was evaluated by Annexin V-FITC and PI staining, and FACS analysis. All data are expressed as means±s.d. from three individual experiments (*; P<0.05)
Salinomycine analogue-induced cell death is inhibited by the ROS scavenger N-acetylcysteine (NAC). Cell lines were incubated with or without 500 nM of Sal analogues for 48 h. Apoptosis was evaluated by AnnexinV-FITC and PI staining, and FACS analysis.

[2] = Toxicity assessment (histology, body weight); assay type: in vivo, mice; conditions: effective dose
From the text: FIG. 15 is a graph representing the mice body-weight during treatment with AM5. Error bars for mice body weight represent s.d. and correspond to correspond to five animals per group.
Histology. Organs from mice were removed at time of sacrifice. For morphological analyses, organs were fixed with 4% paraformaldehyde, paraffin embedded, and 4-μm sections were stained with hematoxylin and eosin (H&E). Sections were scanned at high resolution using a slide scanner (NanoZoomer 2.0-HT, Hamamatsu, Massy, France).

HMLER CD24low cells [3] = assay: Reactive Oxygen Species (ROS) levels by flow cytometry (CM-H2DCF-DA); assay type: cell-based, Human; conditions: cells treated for 48 h
Method: Reactive Oxygen Species (ROS) levels were measured by flow cytometry or by confocal scanning immunofluorescence microscopy using CM-H2DCF-DA (C6827, invitrogen). Briefly, U2OS and HMLER CD24low cells were treated as indicated in FIG. 11 (30 nM, 500 nM or 1 μM of salinomycine, AM5 or AM23 or untreated during 48 h). Then, these cells were trypsined and incubated with 5 μM CM-H2DCF-DA at 37° C. for 40 min, washed once with PBS and were counterstained with DAPI (0.5 μg/ml) to exclude non-viable cells. The mean fluorescence intensity was determined as ROS production by flow cytometry with LSRFortessa™ cytometer (BD Bioscience, San Jose, Calif.). For immunofluorescence microscopy analysis, cells were seeded on coverslips and were treated with salinomycine derivatives (injection in culture medium then treatment during 24 h, 48 h and 72 h). LysoTracker® Red DND-99 (L-7528, Life technologies) was used to visualize lysosomes. Then, cells were fixed with 4% PFA/PBS. DAPI was used to visualize nuclear DNA. Cell images were obtained using a Deltavision real-time microscope (Applied Precision) or an ApoTome.2 microscope (Zeiss). ImageJ was used for further image processing.
FACS analysis of ROS in cells treated for 48 h is represented in FIG. 17.

MCF-7 xenograft = assay: Xenograft tumor formation; assay type: in vivo, mice; conditions: 3 mg per kg body weight per day, intra peritoneal
Method: Human breast cancer cell line MCF-7 cells cultures were collected, enzymatically dissociated, washed in PBS, and resuspended in PBS/Matrigel mixture (1:1 volume). 0.1 ml of this mixture was then implanted in the mammary fat pad of 5-week-old female AthymicNude-Fox1nu mice (Harlan, France). The mice were maintained in individually-ventilated cages (Tecniplast, France) under constant temperature and humidity; all experiments were performed under laminar flow (Tecniplast France). The mice received estradiol supplementation (0.4 mg/kg) in the same day and 7th day from cell injection, and were observed and palpated for tumor appearance. The mice received Salinomycine analogue (here AM5, 3 mg per kg body weight per day, intra peritoneal injection) every 5 opened days of the week for 33 days. Tumor growth was measured weekly using calipers. Tumor volume was determined using the standard formula: L×W2×0.52, where L and W are the longest and shortest diameters, respectively. […]
Xenograft tumor formation experiments: MCF-7 cell cultures were collected, enzymatically dissociated, washed with PBS, and re-suspended in a PBS/Matrigel mixture (1:1 v/v). […] Tumor growth was measured weekly using calipers. Tumor volume was determined using the standard formula: L×W2×0.52, where L and W are the longest and shortest diameters, respectively. […]

Compound	intracellular sodium (HMLER CD24low cells [1])	efficacy in reducing the amount of TICs relative to paclitaxel (TICs) [fold]	cell death (apoptosis) mechanism (Cell lines)	body weight throughout treatment [2]	generic toxicity (integrity of peripheral tissues) ([2]; H&E histology)	ROS production under pharmacological inhibition of Cathepsin B (HMLER CD24low cells [3])	tumor volume and tumor weight (MCF-7 xenograft; 33 days)	tumor growth (MCF-7 xenograft; MCF-7 xenograft-bearing mice)
CCC(C(=O)O)[C@H]1CC[C@H](C)C([C@@H](C)[C@H](O)[C@H](C)C(=O)[C@H](CC)[C@H]2O[C@]3(C=C[C@@H](O)[C@]4(CC[C@@](C)([C@H]5CC[C@](O)(CC)[C@H](C)O5)O4)O3)[C@H](C)C[C@@H]2C)O1 (stereo partly drawn) [Salinomycine, Salinomycin]	induced a fast increase in intracellular sodium	100	induce cell death through lysosomal ROS production	–	–	–	–	–
C#CCN[C@@H]1C=C[C@]2(O[C@H]([C@@H](CC)C(=O)[C@@H](C)[C@@H](O)[C@H](C)C3O[C@@H](C(CC)C(=O)O)CC[C@@H]3C)[C@@H](C)C[C@H]2C)O[C@@]12CC[C@@](C)([C@H]1CC[C@](O)(CC)[C@H](C)O1)O2 (stereo partly drawn) [AM5, Sal-Propargylamine]	–	–	induce cell death through lysosomal ROS production	constant body weight	No generic toxicity was observed	prevents AM5 from inducing ROS production	lower	inhibits breast cancer tumor growth; also recorded: prevented tumor growth
